The record followed here is patent US6444683B2, “17-azolyl steroids useful as androgen synthesis inhibitors” (University of Maryland at Baltimore, priority 1997, dated 2002).

In one series the target is T1, Rat P45017α (Rattus norvegicus, UniProt P11715).
T1 sequence (P11715 1-507): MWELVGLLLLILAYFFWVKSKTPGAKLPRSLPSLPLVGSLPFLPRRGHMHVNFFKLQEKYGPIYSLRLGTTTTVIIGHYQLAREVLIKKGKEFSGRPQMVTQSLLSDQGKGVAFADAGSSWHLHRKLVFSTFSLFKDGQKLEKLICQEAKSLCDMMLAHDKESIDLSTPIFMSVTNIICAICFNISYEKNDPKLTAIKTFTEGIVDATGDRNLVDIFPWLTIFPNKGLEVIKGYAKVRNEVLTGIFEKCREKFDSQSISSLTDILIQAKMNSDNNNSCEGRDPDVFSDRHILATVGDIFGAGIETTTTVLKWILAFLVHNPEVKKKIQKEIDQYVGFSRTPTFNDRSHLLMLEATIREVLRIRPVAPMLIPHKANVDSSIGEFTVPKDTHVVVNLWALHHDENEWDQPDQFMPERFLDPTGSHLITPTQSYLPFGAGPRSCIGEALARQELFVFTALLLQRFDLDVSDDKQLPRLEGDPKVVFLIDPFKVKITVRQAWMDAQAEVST
Briefly: Inhibition of rat testicular microsomal P45017α (lyase activity). Particulars: for Increase of potency towards the rat enzyme compared with human P45017α: from IC50 values, rat vs human testicular microsomes; for Inhibition of rat testicular P45017α, in words / IC50: rat testicular microsomes; for IC50: mean ± SDM of at least two experiments, read-out: Rat P45017α IC50. The series is classed as biochemical. As to the method: (§1) The microsomes were stored at −70° C. until assayed. Just before use, the thawed microsomes were diluted with 0.1 M phosphate buffer (pH 7.4) to appropriate concentrations.
(§2) This assay measures only the lyase activity of the P45017α enzyme.
(§3) IC50 values for inhibitors were calculated from the linear regression line in the plot of logit of lyase activity versus log of inhibitor concentration. […] Each inhibitor was examined at three concentrations.

In series [1] the target is T2, human prostate 5α-reductase (Homo sapiens, UniProt P31213).
T2 construct: The enzymatic reactions were initiated by addition of human BPH microsomes; from tissue; host or cells: human benign prostatic hyperplasia (BPH) tissue, microsomal fraction
T2 sequence (P31213 1-254): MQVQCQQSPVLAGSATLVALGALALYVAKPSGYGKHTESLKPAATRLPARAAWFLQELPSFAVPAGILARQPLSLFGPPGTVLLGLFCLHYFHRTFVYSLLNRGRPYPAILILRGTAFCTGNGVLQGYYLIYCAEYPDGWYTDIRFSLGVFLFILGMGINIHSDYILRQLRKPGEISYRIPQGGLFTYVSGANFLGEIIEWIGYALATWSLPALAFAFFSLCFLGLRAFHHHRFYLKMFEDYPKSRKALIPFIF
Briefly: Inhibition of human prostate 5α-reductase in BPH microsomes (conversion of [7-3H]-testosterone to DHT). Type of series: biochemical. Particulars: for Inhibition of 5α-reductase, in words: human prostate enzyme. As to the method: […] The ethanol was evaporated to dryness under a gentle stream of air. […] The enzymatic reactions were initiated by addition of human BPH microsomes (about 180 μg of microsomal protein in 500 μl of phosphate buffer) in a total volume of 1.0 ml, and the incubations were performed for 10 min under oxygen in a shaking water bath at 37° C. The incubations were terminated by placing the sample tubes on ice and the addition of ether. Also, [^14C]-DHT (3000 dpm) and cold DHT (50 μg) were added to each tube as an internal standard and visualization marker, respectively. The steroids were extracted with ether and separated by TLC (chloroform:ether, 80:20) and visualized by exposure to iodine vapor. The extracts were analyzed for ^3H and ^14C using a liquid scintillation counter. The percentage conversion of [7-^3H]-testosterone to [^3H]-dihydrotestosterone was calculated and used to determine 5α-reductase activity.

For a further series, the target named is T3, Human P45017α (Homo sapiens, UniProt P05093).
T3 construct: Human testicular microsomes were prepared from human testes; from tissue; host or cells: human testes (untreated prostatic cancer patients undergoing orchidectomy), microsomal fraction
T3 sequence (P05093 1-508): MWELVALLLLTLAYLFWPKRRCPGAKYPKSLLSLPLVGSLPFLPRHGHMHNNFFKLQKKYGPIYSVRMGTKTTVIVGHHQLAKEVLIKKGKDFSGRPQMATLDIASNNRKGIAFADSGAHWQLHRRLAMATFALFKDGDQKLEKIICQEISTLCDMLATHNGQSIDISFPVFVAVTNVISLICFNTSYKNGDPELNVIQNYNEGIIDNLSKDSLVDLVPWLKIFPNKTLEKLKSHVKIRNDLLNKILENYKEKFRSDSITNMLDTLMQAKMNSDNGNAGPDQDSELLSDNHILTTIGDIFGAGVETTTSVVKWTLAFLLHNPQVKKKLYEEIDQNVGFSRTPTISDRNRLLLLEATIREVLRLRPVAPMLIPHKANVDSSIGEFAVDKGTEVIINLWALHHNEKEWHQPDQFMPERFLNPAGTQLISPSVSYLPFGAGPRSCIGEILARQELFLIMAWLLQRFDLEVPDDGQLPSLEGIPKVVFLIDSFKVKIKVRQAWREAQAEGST
As to the kind of experiment: Inhibition of human testicular microsomal P45017α (lyase activity, release of C3H3COOH from [21-3H3]-17α-hydroxypregnenolone). Type of series: biochemical. Particulars: for Ki: Human P45017α Ki, from Lineweaver-Burk plots and slope replots, Km of 17α-hydroxypregnenolone 560 nM. As for the experimental part: as §1, §2, §3

Where [2] appears, read: human BPH microsomes, mean ± SDM of at least two experiments, read-out: 5α-Reductase IC50.

Molecules are shown by their SMILES. “And” between values parts separate entries of the source, which are not always exact repeats. Equal values may be shown once. “Also recorded” adds a separate entry of the source. Read-outs that look alike come from different tables or passages of the source.

Regarding `C[C@]12CC[C@H](O)CC1=CC[C@@H]1[C@@H]2CC[C@]2(C)C(n3cncn3)=CC[C@@H]12` [Compound 6, 3β-hydroxy-17-(1H, 1,2,4-triazol-1-yl)androsta-5,16-diene], the melting point was 185 to 189 °C (dec.). Besides, at Rat P45017α, the “Increase of potency towards the rat enzyme compared with human P45017α” value (from here on “Increase”) came out at 3.5 fold; the “Inhibition of rat testicular P45017α, in words” value is given as “powerful inhibitors”; the concentration for half-maximal inhibition (IC50) came to 0.026 ± 0.013 µM. Further, in series [1] (setting [2]), the IC50 was approximately 160 µM. Further, in series [1], the “Inhibition of 5α-reductase, in words” value is on record as “poor inhibitors”. At Human P45017α, this compound registered an IC50 of 0.09 µM and a Ki of 0.023 µM. The “Inhibition of human P45017α, in words” value on Human P45017α (human testicular microsomes) was “potent inhibitors; also recorded: powerful inhibitors”. Also, the inhibition at 0.15 µM at Human P45017α (inhibitor 150 nM, substrate 17α-hydroxypregnenolone 10 μM, mean of two determinations, read-out: % Inhibition of human P45017α) was determined as 60%.
As for `C[C@]12CCC(=O)C=C1CC[C@@H]1[C@@H]2CC[C@]2(C)C(n3cncn3)=CC[C@@H]12` [Compound 7, 17-(1H, 1,2,4-triazol-1-yl)androsta-4,16-diene-3-one], the “Increase” value at Rat P45017α was 5 fold. Besides, the “Inhibition of rat testicular P45017α, in words” value on Rat P45017α is recorded as “powerful inhibitors”. In addition, the IC50 is 0.011 ± 0.003 µM on Rat P45017α; 0.152 ± 0.01 µM in series [1] (setting [2]); 0.055 ± 0.011 µM at Human P45017α (human testicular microsomes, mean ± SDM of at least two experiments, read-out: Human P45017α IC50). Also, in series [1], the “Inhibition of 5α-reductase, in words” value is recorded as “potent inhibitors”. The “Inhibition of human P45017α, in words” value on Human P45017α (human testicular microsomes) is “powerful inhibitors”.
For `C[C@]12CCC(=O)C=C1CC[C@@H]1[C@@H]2CC[C@]2(C)C(n3ccnc3)=CC[C@@H]12` [Compound 12, 17-(1H-imidazol-1-yl)androsta-4,16-diene-3-one], at Rat P45017α, the “Increase” value is listed as “unchanged”; the “Inhibition of rat testicular P45017α, in words” value is “powerful inhibitors”; the IC50 amounted to 0.008 ± 0.0007 µM. For the same compound, the IC50 in series [1] (setting [2]) was found to be 0.142 ± 0.005 µM. The “Inhibition of 5α-reductase, in words” value in series [1] was “potent inhibitors”. For the same compound, on Human P45017α, the half-inhibitory concentration (IC50) stood at 0.007 ± 0.001 µM; the Ki was 0.0018 µM and 0.0019 µM. Further, the “Inhibition of human P45017α, in words” value on Human P45017α (human testicular microsomes) was “powerful inhibitors”.
`C[C@]12CC[C@H]3[C@@H](CCC4=CC(=O)CC[C@@]43C)[C@@H]1CC[C@@H]2n1ccnc1` [Compound 14, 17β-(1H-imidazol-1-yl)androst-4-ene-3-one]: the IC50 in series [1] is 0.765 ± 0.1 µM; at Human P45017α, 0.036 µM.
As to `C[C@]12CCC(=O)C=C1CC[C@@H]1[C@@H]2CC[C@]2(C)C(n3ccnn3)=CC[C@@H]12` [Compound 21, 17-(1H-1,2,3-triazol-1-yl)androsta-4,16-diene-3-one], the melting point was in the range of 118 to 120 °C. In addition, at Rat P45017α, the “Increase” value turned out to be 2 fold; the “Inhibition of rat testicular P45017α, in words” value is reported as “powerful inhibitors”; the IC50 was 0.009 ± 0.002 µM. Besides, in series [1] (setting [2]), the IC50 amounted to 0.198 ± 0.033 µM. Also, the “Inhibition of 5α-reductase, in words” value in series [1] was “potent inhibitors”. At Human P45017α, the IC50 came out at 0.019 ± 0.001 µM and the Ki was found to be 0.008 µM. Besides, on Human P45017α (human testicular microsomes), the “Inhibition of human P45017α, in words” value is on record as “powerful inhibitors”.
